Laboratory results taken from PubChem BioAssay AID2423 (Broad Institute, 2010).
Inconclusive results are not listed. The source made the active and inactive calls. How the calls were made is not given here.

Tested on: C. albicans CaCi-8 + fluconazole, Alamar Blue growth, 48 h
Test: resistant C. albicans growth inhibition with fluconazole, dose response, CaCi-8 strain, Alamar Blue fluorescence (AID 2423)

## Cc1ccc(NC(=O)C2C(C(=O)O)C3C=CC2C32CC2)cc1 (stereo unspecified)
  EC50: > 16000 nM (inactive)

## C=CCc1cccc(/C=N/NC(=O)CNc2ccccc2OC)c1O
  EC50: 12500 nM

## CN(C(=O)CSc1nnc(-c2ccco2)o1)C1CCCCC1
  EC50: 13200 nM

## Cc1ccc(C)c(N=Nc2ccc(O)c3ncccc23)c1
  EC50: 716 nM

## Cc1cc(Br)ccc1OCC(=O)NNC(=O)C(=O)Nc1ccccc1
  EC50: 718 nM

## COc1ccc(-n2c(=O)c3c4c(sc3n3c(=S)[nH]nc23)CCCC4)cc1
  EC50: 744 nM

## Cc1nc(-n2[nH]c3c(c2=O)CCCC3)[nH]c(=O)c1Cc1ccccc1
  EC50: 541 nM

## CCSc1ccc2cc(OC)ccc2[n+]1CC
  EC50: 4710 nM

## CSc1nc(Cl)c(C#N)c(-c2ccc(C)cc2)n1
  EC50: 2840 nM

## CC(C)(C)c1ccc(CSc2cnn(C(C)(C)C)c(=O)c2Cl)cc1
  EC50: 324 nM

## CC(C)OP(=O)(c1ccc(N(C)C)cc1)C(O)c1ccccc1 (stereo unspecified)
  EC50: 4320 nM

## O=C(NNC1=C(C(=O)C(F)(F)F)CCC1)c1cccc(Cl)c1
  EC50: 1960 nM

## CCN1/C(=C/c2sc(-c3ccccc3C)c[n+]2C)Sc2ccccc21
  EC50: 289 nM

## C(=N\NC1=Nc2cccc3cccc1c23)/c1ccccn1
  EC50: > 16000 nM (inactive)

## CCCC(=O)NC(c1ccccc1Cl)c1ccc2cccnc2c1O (stereo unspecified)
  EC50: 516 nM

## O=C(Nc1ccccc1)OCN1C(=O)c2ccccc2C1=O
  EC50: > 15000 nM (inactive)

## Oc1ccc(CN2CCN(Cc3ccccc3)CC2)c2cccnc12
  EC50: > 16000 nM (inactive)

## CCCCc1c(O)nc(SCC(=O)Nc2cccc3ccccc23)n(-c2ccccc2OC)c1=O
  EC50: 7770 nM

## O=C(NCc1ccc(F)cc1)C(c1ccccc1)N(CC1CCCO1)C(=O)Cn1nnc2ccccc21 (stereo unspecified)
  EC50: 1160 nM

## CCCC(=O)NC(c1cccs1)c1cc(Cl)c2cccnc2c1O (stereo unspecified)
  EC50: 729 nM

## CCOC(=O)c1ccc(-c2ccc(C3Nc4ccccc4C(=O)N3O)o2)cc1 (stereo unspecified)
  EC50: 5630 nM

## O=C(NNC(=O)c1cc(-c2ccncc2)nc2ccccc12)c1ccccc1O
  EC50: 2290 nM

## COc1ccc(N(CC(=O)Nc2ccccc2C(N)=O)S(=O)(=O)c2ccc(C)c([N+](=O)[O-])c2)cc1
  EC50: 319 nM

## O=c1c2ccccc2nc(/C=C/c2ccc([N+](=O)[O-])o2)n1-c1ccc(O)cc1
  EC50: < 120 nM

## Oc1[nH]c2c(Cl)cc(Cl)cc2c1N=NC(=S)NCC1CCCO1 (stereo unspecified)
  EC50: 3580 nM

## COc1ccc(C2C(C(=O)c3cccs3)=C(O)C(=O)N2c2nncs2)cc1 (stereo unspecified)
  EC50: 15200 nM

## Cc1ccc(C(=O)c2coc3cc([N+](=O)[O-])c(O)c([N+](=O)[O-])c23)cc1
  EC50: 1230 nM

## COc1cc2ccccc2cc1C(=O)NNC(=O)c1ccccc1O
  EC50: 8440 nM

## O=C(O)c1ccc(-c2nc(-c3ccc(Cl)c(Cl)c3)cs2)cc1
  EC50: 4160 nM

## Nc1cc(N)nc(SCc2cccc(F)c2)n1
  EC50: > 15000 nM (inactive)

## CC(C)n1cc(/C=C/c2cc[n+](C)cc2)c2ccccc21
  EC50: 3090 nM

## C/C(=N\NC(=O)C1CCCC1)c1ccc(Cl)c(Cl)c1
  EC50: > 15000 nM (inactive)

## CCCCCCSc1nnc2[nH]c(=O)cc(N)n12
  EC50: 1150 nM

## O=C1c2ccccc2NC(c2cnc3ccccc3n2)N1O (stereo unspecified)
  EC50: > 16000 nM (inactive)

## O=C(CC(NCCN1CCOCC1)C(=O)O)Nc1cccc(Cl)c1 (stereo unspecified)
  EC50: > 16000 nM (inactive)

## CCC(C)(C)c1ccc(OCCCC[n+]2ccc(C)cc2)c(C(C)(C)CC)c1
  EC50: > 16000 nM (inactive)

## Cc1ccc(OCC(=O)N/N=C\c2c(C)[nH]n(-c3ccccc3)c2=O)c([N+](=O)[O-])c1
  EC50: 6600 nM

## COc1cnc(-c2ccccn2)nc1NC(C)C
  EC50: > 15000 nM (inactive)

## Cc1ccccc1C(=O)NNC(=S)NC(=O)c1ccc(Cl)cc1Cl
  EC50: 1390 nM

## CC(C)CCN1C(=O)c2ccc(C(=O)Nc3ccc(Br)cc3C(=O)O)cc2C1=O
  EC50: 1270 nM

## Oc1ccc(/C=N/NP(=S)(c2ccccc2)c2ccccc2)c(O)c1O
  EC50: 8830 nM

## COCc1nnc(NC(=O)c2ccc(S(=O)(=O)N3CCCc4ccccc43)cc2)o1
  EC50: 10500 nM

## N#CC1CC(c2ccccc2)=NN1c1ccccc1[N+](=O)[O-] (stereo unspecified)
  EC50: 404 nM

## COc1ccc(C[C@H]2NC[C@H](O)[C@H]2OC(C)=O)cc1
  EC50: 1480 nM

## CCOc1cc(N2CCOCC2)c(OCC)cc1NC(=O)COc1cccc2cccnc12
  EC50: > 15000 nM (inactive)

## CC[n+]1c(/C=C/C=C/c2ccc(N(C)C)cc2)sc2ccccc21
  EC50: < 120 nM

## COc1cccc(-c2nnc(NC(=O)c3ccc4ncsc4c3)o2)c1
  EC50: 1030 nM

## COc1ccc(C(c2c(O)ccc3ccccc23)N2CCOCC2)c(OC)c1 (stereo unspecified)
  EC50: 2850 nM

## CCc1nnc(NC(=O)Cn2ccc(C(F)(F)F)n2)s1
  EC50: > 15000 nM (inactive)

## Cc1nn(-c2ccccc2)c(C)c1C(=O)OC/C(O)=C(\C#N)c1nc2ccccc2[nH]1
  EC50: 1030 nM

## O=C(/C=C\c1ccc(-c2cccc([N+](=O)[O-])c2)o1)N1CCOCC1
  EC50: 3100 nM

## Cc1ccc(Nc2cc(C)nn2-c2nc(C)cc(=O)[nH]2)cc1
  EC50: < 120 nM

## Cc1c(OCC(=O)NCC(O)c2ccccc2)ccc2c(-c3ccccc3)cc(=O)oc12 (stereo unspecified)
  EC50: 1260 nM

## Oc1c(Br)cc(Br)cc1Oc1ccc(Br)cc1Br
  EC50: 1760 nM

## C=CCn1c(O)c(N=NC(=S)Nc2ccc(OC)cc2)c2ccccc21
  EC50: 7700 nM

## CN(CCCNC(=O)CCCOc1cc(=O)n(C)c2ccccc12)Cc1ccccc1
  EC50: > 16000 nM (inactive)

## Cc1cc(=O)oc2cc(Oc3ccc([N+](=O)[O-])cc3[N+](=O)[O-])ccc12
  EC50: 652 nM

## O=C(c1cc(COc2cccc(C(F)(F)F)c2)on1)N1CCC(c2ccncc2)CC1
  EC50: 2540 nM

## CCCc1nnc(NC(=S)Nc2ccccc2)s1
  EC50: 1340 nM

## Cc1ccc(C(=O)Nc2nc3ccccc3c(=O)s2)cc1
  EC50: 458 nM

## CCOc1ccc(/C=C/C2=CC(C)(C)NC(=S)N2)cc1
  EC50: 1160 nM

## CN(C)c1ccc(/C=C/C=C/c2sc3ccccc3[n+]2C)cc1
  EC50: 1740 nM

## O=C(Nc1ccccc1O)c1ccccc1O
  EC50: 784 nM

## COc1cccc(COc2cc3ccccc3nc2C)c1
  EC50: 1060 nM

## O=C(Nc1nnc(SCc2ccc(F)cc2)s1)c1ccccn1
  EC50: 487 nM

## CCn1c(NN=O)nc2ccccc21
  EC50: 7380 nM

## COc1cc(C(=O)NC(=S)N(CCc2ccccc2)CCc2ccccc2)cc(OC)c1OC
  EC50: 1820 nM

## C=CC[C@@H]1C=C(C)C[C@H](C)C[C@H](OC)[C@H]2O[C@@](O)(C(=O)C(=O)N3CCCC[C@H]3C(=O)O[C@H](/C(C)=C/[C@@H]3CC[C@@H](O)[C@H](OC)C3)[C@H](C)[C@@H](O)CC1=O)[C@H](C)C[C@@H]2OC
  EC50: < 120 nM

## Cc1ccc(C(c2cc(Cl)c3cccnc3c2O)N2CCN(C)CC2)cc1 (stereo unspecified)
  EC50: 704 nM

## Cc1noc2ncnc(Sc3ccc(Br)cc3)c12
  EC50: 2640 nM

## COc1ccc(C(=O)N/N=C(\Cc2ncc[nH]2)c2ccccc2)cc1
  EC50: > 16000 nM (inactive)

## O=[N+]([O-])c1ccc(N/N=C/c2ccc(O)c(O)c2O)c(S(=O)(=O)N2CCOCC2)c1
  EC50: 8260 nM

## Cc1ccnc(NC(c2cccnc2)c2ccc3cccnc3c2O)c1 (stereo unspecified)
  EC50: 13100 nM

## COc1ccc(-n2cc(-c3ccc(C)cc3)[n+]3c2SCC3)cc1
  EC50: 2940 nM

## COc1ccc(NC(=O)c2ccc([N+](=O)[O-])o2)cc1
  EC50: 1340 nM

## CC(C)c1ccc2c(c1)C(N1CCNCC1)Cc1ccc(F)cc1S2 (stereo unspecified)
  EC50: 7170 nM
